Results on 5 compounds are retold here after publication PMC12931196, “Vm–MSI: a Vancomycin–Antimicrobial Peptide Conjugate Combating Resistant Bacteria and Broadening the Antimicrobial Spectrum” (Advanced Science, 2025).

Like-named read-outs stand apart in the source and are kept apart here. Ends that are not written are not given here.

In the case of `CC[C@H](C)[C@H](NC(=O)[C@H](CCCNC(=N)N)NC(=O)[C@H](CCCNC(=N)N)NC(=O)[C@@H](N)CSC1CC(=O)N(CC2CCC(C(=O)N(C)[C@H](CC(C)C)C(=O)N[C@H]3C(=O)N[C@@H](CC(N)=O)C(=O)N[C@H]4C(=O)N[C@H]5C(=O)N[C@H](C(=O)N[C@H](C(=O)O)c6cc(O)cc(O)c6-c6cc5ccc6O)[C@H](O)c5ccc(c(Cl)c5)Oc5cc4cc(c5O[C@@H]4O[C@H](CO)[C@@H](O)[C@H](O)[C@H]4O[C@H]4C[C@](C)(N)[C@H](O)[C@H](C)O4)Oc4ccc(cc4Cl)[C@H]3O)CC2)C1=O)C(=O)N[C@@H](CCCNC(=N)N)C(=O)N1CCC[C@H]1C(=O)N[C@@H](CCCNC(=N)N)C(=O)N1CCC[C@H]1C(=O)N1CCC[C@H]1C(=O)N[C@@H](CCCNC(=N)N)C(=O)N[C@@H](CC(C)C)C(=O)N1CCC[C@H]1C(=O)N[C@@H](CCCNC(=N)N)C(=O)N1CCC[C@H]1C(=O)N[C@@H](CCCNC(=N)N)C(=O)N1CCC[C@H]1C(=O)N[C@@H](CCCNC(=N)N)C(=O)N1CCC[C@H]1C(=O)O` (some centres unmarked) [Vm-Bac], the MIC against S. aureus ATCC29213 (ATCC29213, 18 h) is 2.34(0.59) µg mL^−1; against VRSA 11 (11, 18 h), 18.75(4.76) µg mL^−1; against E. coli ATCC25922 (ATCC25922, 18 h) it was 18.75(4.76) µg mL^−1; against K. pneumoniae 9883 (9883, 18 h), >100(>25.4) µg mL^−1; against MRSA ATCC43300 (ATCC43300, 18 h) it was 2.34(0.59) µg mL^−1; against A. baumannii ATCC19606 (ATCC19606, 18 h), 18.75(4.76) µg mL^−1. In addition, the MIC with E. faecalis ATCC29212 (ATCC29212, 18 h) is 18.75(4.76) µg mL^−1; against S. aureus 15192 (15192, 18 h), 1.17(0.30) µg mL^−1; with S. aureus 15772 (15772, 18 h), 2.34(0.59) µg mL^−1; against VRSA 52 (52, 18 h), 18.75(4.76) µg mL^−1; against S. aureus CMCC26003 (CMCC26003, 18 h), 0.78(0.20) µg mL^−1; in the assay with S. typhimurium ATCC14028 (ATCC14028, 18 h) it was 37.5(9.52) µg mL^−1. Moreover, in the assay with P. aeruginosa ATCC27853 (ATCC27853, 18 h), the MIC is >100(>25.4) µg mL^−1.
For `CC[C@H](C)[C@H](NC(=O)[C@@H](N)CSC1CC(=O)N(CC2CCC(C(=O)N(C)[C@H](CC(C)C)C(=O)N[C@H]3C(=O)N[C@@H](CC(N)=O)C(=O)N[C@H]4C(=O)N[C@H]5C(=O)N[C@H](C(=O)N[C@H](C(=O)O)c6cc(O)cc(O)c6-c6cc5ccc6O)[C@H](O)c5ccc(c(Cl)c5)Oc5cc4cc(c5O[C@@H]4O[C@H](CO)[C@@H](O)[C@H](O)[C@H]4O[C@H]4C[C@](C)(N)[C@H](O)[C@H](C)O4)Oc4ccc(cc4Cl)[C@H]3O)CC2)C1=O)C(=O)N[C@@H](CC(C)C)C(=O)N[C@@H](CCCNC(=N)N)C(=O)N[C@@H](Cc1c[nH]c2ccccc12)C(=O)N1CCC[C@H]1C(=O)N[C@@H](Cc1c[nH]c2ccccc12)C(=O)N[C@@H](Cc1c[nH]c2ccccc12)C(=O)N1CCC[C@H]1C(=O)N[C@@H](Cc1c[nH]c2ccccc12)C(=O)N[C@@H](CCCNC(=N)N)C(=O)N[C@@H](CCCNC(=N)N)C(=O)N[C@@H](CCCCN)C(N)=O` (some centres unmarked) [Vm-Omi], the MIC against S. aureus ATCC29213 (ATCC29213, 18 h) was 1.17(0.33) µg mL^−1; in the assay with VRSA 11 (11, 18 h) it was 75(21.13) µg mL^−1; against E. coli ATCC25922 (ATCC25922, 18 h), >100(>28) µg mL^−1; with K. pneumoniae 9883 (9883, 18 h), >100(>28) µg mL^−1; against MRSA ATCC43300 (ATCC43300, 18 h) it was 4.69(1.32) µg mL^−1; in the assay on A. baumannii ATCC19606 (ATCC19606, 18 h), >100(>28) µg mL^−1. The MIC against E. faecalis ATCC29212 (ATCC29212, 18 h) is recorded as >100(>28) µg mL^−1; in the assay with S. aureus 15192 (15192, 18 h), 0.78(0.22) µg mL^−1; in the assay with S. aureus 15772 (15772, 18 h), >100(>28) µg mL^−1; with VRSA 52 (52, 18 h), 75(21.13) µg mL^−1; against S. aureus CMCC26003 (CMCC26003, 18 h), 0.78(0.22) µg mL^−1; with S. typhimurium ATCC14028 (ATCC14028, 18 h), >100(>28) µg mL^−1. Moreover, the MIC with P. aeruginosa ATCC27853 (ATCC27853, 18 h) is reported as >100(>28) µg mL^−1.
Take `CC(C)C[C@H](NC(=O)[C@H](Cc1ccc(O)cc1)NC(=O)[C@H](Cc1c[nH]cn1)NC(=O)[C@@H](NC(=O)[C@H](CC(C)C)NC(=O)[C@H](C)NC(=O)[C@H](C)NC(=O)[C@H](CCCCN)NC(=O)CNC(=O)[C@@H](NC(=O)[C@H](Cc1c[nH]cn1)NC(=O)[C@H](CCCCN)NC(=O)CNC(=O)[C@@H](NC(=O)[C@H](Cc1c[nH]cn1)NC(=O)[C@H](C)NC(=O)[C@H](C)NC(=O)[C@H](CCCCN)NC(=O)[C@H](CCCCN)NC(=O)[C@H](Cc1ccccc1)NC(=O)[C@H](Cc1ccccc1)NC(=O)[C@H](CO)NC(=O)CNC(=O)[C@H](Cc1c[nH]c2ccccc12)NC(=O)CNC(=O)[C@@H](N)CSC1CC(=O)N(CC2CCC(C(=O)N(C)[C@H](CC(C)C)C(=O)N[C@H]3C(=O)N[C@@H](CC(N)=O)C(=O)N[C@H]4C(=O)N[C@H]5C(=O)N[C@H](C(=O)N[C@H](C(=O)O)c6cc(O)cc(O)c6-c6cc5ccc6O)[C@H](O)c5ccc(c(Cl)c5)Oc5cc4cc(c5O[C@@H]4O[C@H](CO)[C@@H](O)[C@H](O)[C@H]4O[C@H]4C[C@](C)(N)[C@H](O)[C@H](C)O4)Oc4ccc(cc4Cl)[C@H]3O)CC2)C1=O)C(C)C)C(C)C)[C@@H](C)O)C(N)=O` (some centres unmarked) [Vm-Ple]: the MIC against S. aureus ATCC29213 (S. aureus ATCC29213, MH broth, 37 °C, 18 h, OD600) is given as 4.69(1.05) µg mL^−1; with VRSA 11 (VRSA 11, MH broth, 37 °C, 18 h, OD600), 9.38(2.10) µg mL^−1; with E. coli ATCC25922 (E. coli ATCC25922, MH broth, 37 °C, 18 h, OD600), 4.69(1.05) µg mL^−1; in the assay on K. pneumoniae 9883 (K. pneumoniae 9883, MH broth, 37 °C, 18 h, OD600), 37.5(8.37) µg mL^−1; against MRSA ATCC43300 (MRSA ATCC43300, MH broth, 37 °C, 18 h, OD600), 4.69(1.05) µg mL^−1; against A. baumannii ATCC19606 (A. baumannii ATCC19606, MH broth, 37 °C, 18 h, OD600) it was 2.34(0.52) µg mL^−1. Moreover, the MIC is on record as 18.75(4.19) µg mL^−1 with E. faecalis ATCC29212 (E. faecalis ATCC29212, MH broth, 37 °C, 18 h, OD600); 2.34(0.52) µg mL^−1 against S. aureus 15192 (S. aureus 15192, MH broth, 37 °C, 18 h, OD600); 2.34(0.52) µg mL^−1 in the assay on S. aureus 15772 (S. aureus 15772, MH broth, 37 °C, 18 h, OD600); 9.38(2.10) µg mL^−1 with VRSA 52 (VRSA 52, MH broth, 37 °C, 18 h, OD600); 0.78(0.17) µg mL^−1 with S. aureus CMCC26003 (S. aureus CMCC26003, MH broth, 37 °C, 18 h, OD600); 75(16.75) µg mL^−1 with S. typhimurium ATCC14028 (S. typhimurium ATCC14028, MH broth, 37 °C, 18 h, OD600). In addition, the MIC in the assay with P. aeruginosa ATCC27853 (P. aeruginosa ATCC27853, MH broth, 37 °C, 18 h, OD600) is >100(>22.33) µg mL^−1.
As for “GWGSFFKKAAHVGKHVGKAALTHYL-NH2 [Pleurecidin]”, the MIC in the assay on S. aureus ATCC29213 (ATCC29213, 18 h) is given as 9.38(3.46) µg mL^−1; with VRSA 11 (11, 18 h), 4.69(1.73) µg mL^−1; against E. coli ATCC25922 (ATCC25922, 18 h), 2.34(0.86) µg mL^−1; in the assay on K. pneumoniae 9883 (9883, 18 h) it was 4.69(1.73) µg mL^−1; in the assay on MRSA ATCC43300 (ATCC43300, 18 h), 2.34(0.86) µg mL^−1; against A. baumannii ATCC19606 (ATCC19606, 18 h) it was 9.38(3.46) µg mL^−1. Besides, the MIC against E. faecalis ATCC29212 (ATCC29212, 18 h) is 4.69(1.73) µg mL^−1; with S. aureus 15192 (15192, 18 h), 9.38(3.46) µg mL^−1; with S. aureus 15772 (15772, 18 h) it was 9.38(3.46) µg mL^−1; in the assay on VRSA 52 (52, 18 h), 9.38(3.46) µg mL^−1; against S. aureus CMCC26003 (CMCC26003, 18 h), 1.17(0.43) µg mL^−1; against S. typhimurium ATCC14028 (ATCC14028, 18 h), 18.75(6.92) µg mL^−1. Also, the MIC in the assay on P. aeruginosa ATCC27853 (ATCC27853, 18 h) was 9.38(3.46) µg mL^−1.
For the compound RRIRPRPPRLPRPRPRP [Bac-7], the MIC against S. aureus ATCC29213 (ATCC29213, 18 h) is >100(>46.0) µg mL^−1; in the assay with VRSA 11 (11, 18 h), 75(34.53) µg mL^−1; against E. coli ATCC25922 (ATCC25922, 18 h), 18.75(8.63) µg mL^−1; against K. pneumoniae 9883 (9883, 18 h), 9.38(4.32) µg mL^−1; against MRSA ATCC43300 (ATCC43300, 18 h), 9.38(4.32) µg mL^−1; against A. baumannii ATCC19606 (ATCC19606, 18 h), >100(>46.0) µg mL^−1. The MIC in the assay with E. faecalis ATCC29212 (ATCC29212, 18 h) was 18.75(8.63) µg mL^−1; in the assay on S. aureus 15192 (15192, 18 h) it was 75(34.53) µg mL^−1; with S. aureus 15772 (15772, 18 h), 75(34.53) µg mL^−1; in the assay on VRSA 52 (52, 18 h), 75(34.53) µg mL^−1; against S. aureus CMCC26003 (CMCC26003, 18 h), 37.5(17.27) µg mL^−1; against S. typhimurium ATCC14028 (ATCC14028, 18 h) it was 75(34.53) µg mL^−1. Moreover, the MIC in the assay on P. aeruginosa ATCC27853 (ATCC27853, 18 h) was >100(>46.0) µg mL^−1.
